From ChEMBL document CHEMBL1201862, “PubChem BioAssay data set” (2004)
Activity calls are given as the source filed them.

Legend:
[1] = molecular target: T1, Caspase-3 (Homo sapiens, UniProt P42574); assay type: functional;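 further: Dose-response selectivity test against caspase-3 for candidate inhibitors of sentrin-specific proteases (SENPs)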
T1 sequence (P42574 whole entry): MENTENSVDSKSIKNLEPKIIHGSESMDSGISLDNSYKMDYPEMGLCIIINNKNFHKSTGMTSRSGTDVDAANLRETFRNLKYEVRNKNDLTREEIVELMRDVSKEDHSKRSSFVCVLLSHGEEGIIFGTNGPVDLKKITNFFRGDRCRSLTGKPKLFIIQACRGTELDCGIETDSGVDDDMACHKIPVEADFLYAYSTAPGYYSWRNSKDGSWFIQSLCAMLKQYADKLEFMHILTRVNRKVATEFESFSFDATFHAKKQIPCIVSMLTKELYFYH

[2] = molecular target: T2, Sentrin-specific protease 7 (Homo sapiens, UniProt Q9BQF6); assay type: functional;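 further: Luminescence-based dose-response confirmation of ultra-high-throughput screening hits, measuring inhibition of SENP7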
T2 sequence (Q9BQF6 whole entry): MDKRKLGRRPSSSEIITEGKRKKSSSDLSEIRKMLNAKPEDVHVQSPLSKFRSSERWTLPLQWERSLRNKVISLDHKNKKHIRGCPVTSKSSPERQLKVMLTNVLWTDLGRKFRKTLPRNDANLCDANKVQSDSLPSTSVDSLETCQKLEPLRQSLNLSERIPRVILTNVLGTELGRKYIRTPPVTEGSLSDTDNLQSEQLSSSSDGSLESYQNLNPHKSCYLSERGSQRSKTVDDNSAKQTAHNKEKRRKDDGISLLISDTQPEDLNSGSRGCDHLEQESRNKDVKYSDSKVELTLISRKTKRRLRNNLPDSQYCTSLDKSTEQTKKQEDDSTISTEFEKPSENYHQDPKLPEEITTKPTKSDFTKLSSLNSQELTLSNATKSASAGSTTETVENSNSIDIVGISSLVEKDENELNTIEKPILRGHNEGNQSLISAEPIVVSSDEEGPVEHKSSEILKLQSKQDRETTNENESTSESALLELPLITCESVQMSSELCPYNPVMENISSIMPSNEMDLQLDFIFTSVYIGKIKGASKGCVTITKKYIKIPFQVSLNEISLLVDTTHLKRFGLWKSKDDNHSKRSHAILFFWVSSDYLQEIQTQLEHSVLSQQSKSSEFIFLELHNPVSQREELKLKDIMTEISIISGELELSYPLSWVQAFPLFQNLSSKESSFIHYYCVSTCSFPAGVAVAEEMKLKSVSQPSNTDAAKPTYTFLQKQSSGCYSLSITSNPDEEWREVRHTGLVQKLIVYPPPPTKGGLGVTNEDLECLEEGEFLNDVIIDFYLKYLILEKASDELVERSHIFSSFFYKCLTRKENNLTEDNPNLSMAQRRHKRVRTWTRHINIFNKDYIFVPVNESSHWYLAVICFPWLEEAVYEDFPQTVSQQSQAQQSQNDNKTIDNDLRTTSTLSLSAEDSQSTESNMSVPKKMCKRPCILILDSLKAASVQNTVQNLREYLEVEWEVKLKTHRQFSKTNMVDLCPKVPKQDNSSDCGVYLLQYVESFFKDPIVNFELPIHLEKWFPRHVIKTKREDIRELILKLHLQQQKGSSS

[3] = molecular target: T3, Sentrin-specific protease 6 (Homo sapiens, UniProt Q9GZR1); assay type: functional;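 further: Luminescence-based dose-response confirmatory assay of SENP6 inhibition, following up an ultra-high-throughput screen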
T3 sequence (Q9GZR1 whole entry): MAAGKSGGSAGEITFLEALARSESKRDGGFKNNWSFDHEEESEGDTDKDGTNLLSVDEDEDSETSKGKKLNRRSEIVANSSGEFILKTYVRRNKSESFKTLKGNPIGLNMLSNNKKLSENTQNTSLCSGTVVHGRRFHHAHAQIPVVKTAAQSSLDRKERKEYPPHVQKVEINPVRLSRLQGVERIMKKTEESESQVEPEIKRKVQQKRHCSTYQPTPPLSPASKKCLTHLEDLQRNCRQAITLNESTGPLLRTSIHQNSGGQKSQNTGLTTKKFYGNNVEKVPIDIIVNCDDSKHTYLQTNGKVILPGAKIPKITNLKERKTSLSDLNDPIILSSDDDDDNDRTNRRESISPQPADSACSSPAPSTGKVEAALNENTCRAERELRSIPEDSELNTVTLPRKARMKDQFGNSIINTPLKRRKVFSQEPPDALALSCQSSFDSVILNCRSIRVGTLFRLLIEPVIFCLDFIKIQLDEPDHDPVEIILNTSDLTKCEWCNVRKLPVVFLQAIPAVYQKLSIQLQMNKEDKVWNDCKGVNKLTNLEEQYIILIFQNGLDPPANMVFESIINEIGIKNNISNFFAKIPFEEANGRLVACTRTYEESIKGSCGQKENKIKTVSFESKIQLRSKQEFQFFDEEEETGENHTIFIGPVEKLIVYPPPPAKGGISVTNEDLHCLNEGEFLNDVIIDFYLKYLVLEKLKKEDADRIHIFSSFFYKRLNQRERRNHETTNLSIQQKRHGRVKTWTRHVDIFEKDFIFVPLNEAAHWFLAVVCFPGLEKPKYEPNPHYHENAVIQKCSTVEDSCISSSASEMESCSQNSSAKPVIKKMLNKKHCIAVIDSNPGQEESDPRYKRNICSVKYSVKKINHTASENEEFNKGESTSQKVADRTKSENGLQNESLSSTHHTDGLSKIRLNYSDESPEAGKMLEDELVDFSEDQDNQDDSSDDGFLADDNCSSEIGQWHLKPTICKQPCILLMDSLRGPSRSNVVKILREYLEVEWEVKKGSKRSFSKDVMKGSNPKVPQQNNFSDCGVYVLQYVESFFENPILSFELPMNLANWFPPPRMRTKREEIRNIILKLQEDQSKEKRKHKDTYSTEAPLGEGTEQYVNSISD

[4] = molecular target: T4, Sentrin-specific protease 8 (Homo sapiens, UniProt Q96LD8); assay type: functional;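 further: luminescence read-out of SENP8 inhibition, dose-response confirmation following an ultra-high-throughput screen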
T4 sequence (Q96LD8 whole entry): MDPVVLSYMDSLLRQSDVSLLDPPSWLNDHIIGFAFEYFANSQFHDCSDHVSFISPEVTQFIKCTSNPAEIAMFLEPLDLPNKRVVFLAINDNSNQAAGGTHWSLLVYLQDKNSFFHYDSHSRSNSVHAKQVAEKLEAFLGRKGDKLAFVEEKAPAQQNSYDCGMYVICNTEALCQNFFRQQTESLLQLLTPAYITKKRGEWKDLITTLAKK

[5] = molecular target: T5, Corticotropin-releasing factor receptor 2/Corticotropin-releasing factor-binding protein (Homo sapiens, UniProt P24387+Q13324); test: Dose Response confirmation of uHTS hits for small molecule antagonists of the CRF-binding protein and CRF-R2 receptor complex.; assay type: functional; conditions: read-out: IC50_Mean
T5 sequence (Q13324 whole entry): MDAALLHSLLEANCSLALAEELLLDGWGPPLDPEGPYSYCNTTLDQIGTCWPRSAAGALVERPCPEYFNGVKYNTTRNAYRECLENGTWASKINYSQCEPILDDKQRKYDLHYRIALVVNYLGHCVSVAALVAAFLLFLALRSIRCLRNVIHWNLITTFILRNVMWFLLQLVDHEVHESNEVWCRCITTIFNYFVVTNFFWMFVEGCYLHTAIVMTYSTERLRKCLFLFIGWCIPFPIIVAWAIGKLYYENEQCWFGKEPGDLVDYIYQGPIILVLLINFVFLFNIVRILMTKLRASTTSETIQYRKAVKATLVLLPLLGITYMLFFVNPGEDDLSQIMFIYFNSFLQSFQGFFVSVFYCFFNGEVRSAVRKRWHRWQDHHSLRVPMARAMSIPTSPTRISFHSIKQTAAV
T5 sequence (P24387 whole entry): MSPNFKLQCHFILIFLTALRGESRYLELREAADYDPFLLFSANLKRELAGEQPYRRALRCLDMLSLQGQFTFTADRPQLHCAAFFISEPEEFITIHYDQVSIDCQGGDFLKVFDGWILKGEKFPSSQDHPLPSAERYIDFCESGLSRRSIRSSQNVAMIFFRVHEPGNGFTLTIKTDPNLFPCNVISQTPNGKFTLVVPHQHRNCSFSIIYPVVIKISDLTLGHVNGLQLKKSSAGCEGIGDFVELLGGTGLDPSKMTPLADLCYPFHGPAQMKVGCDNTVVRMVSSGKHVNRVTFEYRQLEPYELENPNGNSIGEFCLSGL

[6] = molecular target: T5, Corticotropin-releasing factor receptor 2/Corticotropin-releasing factor-binding protein; test: activators of CRF receptor 2 with binding protein – uHTS hits, confirmation (AID 602473); assay type: functional; conditions: read-out: EC50_Mean
[7] = blockers of CRF-binding protein–CRF-R2 complex – cell-based, uHTS hits, 384-well, dose response (AID 651639); assay type: functional, Homo sapiens; conditions: read-out: IC50_Mean
[8] = viability loss in THP-1 monocytes – THP-1 cells, cytotoxicity control for Vif-APOBEC3G degradation inhibitor project, dose response (AID 1117359); assay type: functional; conditions: THP-1
[9] = viability of uninfected HEp-2 cells – cell-based, HTS, cytotoxicity control for RSV inhibitor project, dose response (AID 2410); assay type: functional; conditions: human respiratory syncytial virus
[10] = Trypanosoma cruzi growth suppression in host cells – NIH3T3 host cells, beta-gal luminescence, confirmation (AID 2044); assay type: functional, cell-based;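 further: intracellular parasites grown in NIH/3T3 mouse fibroblasts as host cells; luminescent beta-galactosidase reporter signal from transgenic T. cruzi replicating inside host cells; inhibitors lower the luminescence signal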
[11] = NIH3T3 cell viability loss – ATP luminescence, mouse fibroblasts, counter-screen, dose response (AID 2010); assay type: functional, cell-based;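 further: cells exposed to compound for about 90 hours before reading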
[12] = blockers of HIV-1 envelope-mediated cell-cell fusion – cherry-pick, dose response (AID 652057); assay type: functional, cell-based
[13] = viability loss in CEM21 cells – cell-based, CellTiter-Glo luminescence, cherry-picked, cytotoxicity control for viral fusion inhibitor project, dose response (AID 652042); assay type: functional;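 further: potency for signal decrease meaning cytotoxicity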
[14] = blockers of HIV-1 ZM109 envelope-driven cell-cell fusion – HeLa effector, CEM target cells, luciferase, cherry-pick, dose response (AID 652058); assay type: functional, cell-based;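 further: luciferase signal from HIV-1 Env mediated cell-cell fusion of effector and target cells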
[15] = off-target signal loss in HeLa-CEM21 co-culture – HeLa F-luc CTL cells, cherry-picked, counter-screen for HIV-1 Env fusion inhibitor project, dose response (AID 652040); assay type: functional, cell-based;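 further: potency for signal decrease marking cytotoxic or nonspecific inhibition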
[16] = molecular target: Cytochrome P450 3A4 (Homo sapiens, UniProt P08684);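 further: CYP3A4 tested as one member of a cytochrome P450 panel screen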
Cytochrome P450 3A4, sequence (P08684 whole entry): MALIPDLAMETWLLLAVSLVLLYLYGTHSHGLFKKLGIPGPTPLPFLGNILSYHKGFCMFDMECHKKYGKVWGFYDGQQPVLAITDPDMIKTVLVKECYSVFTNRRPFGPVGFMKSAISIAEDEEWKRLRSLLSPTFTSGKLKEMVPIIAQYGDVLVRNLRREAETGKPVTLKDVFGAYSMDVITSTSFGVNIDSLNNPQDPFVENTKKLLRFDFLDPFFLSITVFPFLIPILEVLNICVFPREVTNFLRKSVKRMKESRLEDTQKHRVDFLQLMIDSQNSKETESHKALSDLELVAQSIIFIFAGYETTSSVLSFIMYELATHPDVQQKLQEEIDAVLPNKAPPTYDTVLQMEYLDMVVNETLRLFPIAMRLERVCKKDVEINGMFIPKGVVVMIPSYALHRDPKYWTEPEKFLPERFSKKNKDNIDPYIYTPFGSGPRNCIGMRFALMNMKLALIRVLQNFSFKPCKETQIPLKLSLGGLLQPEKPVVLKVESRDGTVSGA

[17] = P. falciparum Dd2 growth inhibitors, dose response, SYBR Green, cherry-picked samples (AID 1159567); assay type: functional, cell-based
[18] = toxicity to human hepatoma HepG2 cells – cell-based, cherry-picked samples, cytotoxicity control, dose response (AID 1159577); assay type: functional
[19] = HIV-1 AD8 envelope cell-cell fusion blockers – cherry-pick, dose response (AID 652062); assay type: functional, cell-based;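 further: luciferase signal from cell-cell fusion driven by HIV-1 clade B AD8 Env; potency is for inhibitors of fusion seen as a drop in luminescence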
[20] = cells; assay type: functional
[21] = molecular target: T6, Protein Tat (Human immunodeficiency virus type 1 group M subtype B (isolate HXB2)(HIV-1), UniProt P04608); assay type: functional;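 further: tat binding to TAR RNA read out by fluorescence polarization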
T6 sequence (P04608 whole entry): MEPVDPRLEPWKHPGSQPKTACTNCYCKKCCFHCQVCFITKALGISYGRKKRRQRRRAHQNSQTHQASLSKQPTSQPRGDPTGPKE

[22] = test system: SN12K1; test: cells; assay type: functional; conditions: Homo sapiens

## Cc1cccc(-c2cc3nc(-c4ccccc4)cc(O)n3n2)c1
[1]
  IC50: 3.86 µM (active)
[2]
  IC50: 2.94 µM (active)
[3]
  IC50: 3.88 µM (active)
[4]
  IC50: 2.01 µM (active)

## Cc1cc(C(F)(F)F)n(-c2nc(C(=O)N/N=C/c3ccc(F)cc3)cs2)n1
[5]
  IC50: 10.7 µM (active)
[6]
  EC50: > 53 µM (inactive)
[7]
  IC50: > 20 µM (inactive)

## CS(=O)(=O)c1ccc(C(=O)Nc2nc(-c3ccco3)c(-c3ccco3)s2)cc1
[8]
  CC50: > 40 µM (active)

## CCOC(=O)C1=C(C)N=C2c3ccccc3C(=O)C2C1c1ccc(Cl)cc1 (stereo unspecified)
[9]
  CC50: 28.7 µM (active)
[10]
  EC50: 2.06 µM (active)
[11]
  EC50: 29.9 µM (active)
[12]
  AC50: 12 µM (active)
[13]
  AC50: 55.8 µM (active)
[14]
  AC50: < 0.26 µM (active)
[15]
  AC50: 16.9 µM (active)
[16]
  AC50: inconclusive

## C[C@H](CO)N1C[C@H](C)[C@@H](CN(C)Cc2cccnc2)Oc2cc(/C=C/c3ccccc3)ccc2S1(=O)=O
[17]
  AC50: 4.03 µM (active)
[18]
  AC50: > 39 µM (inactive)

## O=C(Nc1ccc(-c2ccccc2)cc1)[C@@H]1[C@@H](CO)[C@@H]2Cn3c(cccc3=O)[C@@H]2N1CC1CCCCC1
[17]
  AC50: 3.64 µM (active)
[18]
  AC50: > 39 µM (inactive)

## CO[C@H]1CN(C)C(=O)c2cc(NC(=O)c3ccc(-c4ccccc4)cc3)ccc2OC[C@@H](C)NC[C@H]1C
[17]
  AC50: 5.5 µM (active)
[18]
  AC50: 19.8 µM (active)

## COC(=O)[C@]12C[C@H](CC(=O)NCc3ccccc3)C(=O)N(CCC3=CCCCC3)C1=C[C@H](C(C)(C)C)O[C@@H]2C
[12]
  AC50: 1.76 µM (active)
[13]
  AC50: 32.7 µM (active)
[14]
  AC50: 3.2 µM (active)
[15]
  AC50: 2.75 µM (active)
[19]
  AC50: 4.31 µM (active)

## CCCn1c(CNc2ccccc2O)nc2ccccc21
[20]
  IC50: 5.79 µM (active)
[21]
  IC50: > 100 µM (active)

## Cc1cccc(C)c1NC(=O)CCS(=O)(=O)c1cccc2nsnc12
[21]
  IC50: > 100 µM (active)

## CN(C)c1cccc(C(=O)OCC(=O)Nc2ccccc2Sc2ccccc2)c1
[5]
  IC50: 13.1 µM (active)
[6]
  EC50: > 53 µM (inactive)
[7]
  IC50: > 20 µM (inactive)

## CC(C)(C)NC(=O)/C(=C/c1ccco1)c1ccccc1
[21]
  IC50: > 100 µM (inconclusive)

## CCOC(=O)N1CCC(NC(=O)c2ccc(OC)c(CN3CC(=O)N4CCCC4C3=O)c2)CC1 (stereo unspecified)
[21]
  IC50: > 100 µM (inconclusive)

## Cc1cc(N2CCCCC2)n2ncc(-c3ccccc3)c2n1
[1]
  IC50: 30.1 µM (active)
[2]
  IC50: 6.65 µM (active)
[3]
  IC50: 13.8 µM (active)
[4]
  IC50: 12.4 µM (active)

## Cn1c(=O)c2ncn(CC(=O)Nc3cccc(-c4nc5ccccc5s4)c3)c2n(C)c1=O
[1]
  IC50: 21.4 µM (active)
[2]
  IC50: 15.6 µM (active)
[3]
  IC50: 23.4 µM (active)
[4]
  IC50: 26.1 µM (active)

## CN(C(=O)c1ccccc1)c1nc2ccccc2s1
[1]
  IC50: 15.6 µM (active)
[2]
  IC50: 6.81 µM (active)
[3]
  IC50: 21.1 µM (active)
[4]
  IC50: 50.4 µM (active)

## CN1CCc2[nH]c3ccccc3c2C1
[22]
  GI50: > 100 µM (inactive)

## CC(C)=C1C2CCC1C(C(=O)Nc1sc(C)c(-c3ccc(C(C)C)cc3)c1C(N)=O)C2C(=O)O (stereo unspecified)
[5]
  IC50: 5.03 µM (active)
[6]
  EC50: 15.9 µM (active)
[7]
  IC50: 18.8 µM (active)
